Experimental data published in patent publication US20240041830A1, “CIRCULATING BIOMARKERS OF RESPONSE TO PD-1/PD-L1 BLOCKADE AND GSK-3 INHIBITION” (Brown University, priority 2022, published 2024).

Experiments:
[1] = toxicity monitoring in CT-26 BALB/c mice: body weight, serum chemistry, complete blood count; format: in vivo, mouse
Procedure: In vivo studies. The experimental in vivo protocol (Protocol #19-01-003) was approved by the Institutional Animal Care and Use Committee of Brown University (Providence, RI, USA). Six-week to seven-week-old female BALB/c mice (RRID: IMSR_JAX:000651) were purchased from Taconic. A total of 50,000 cells were suspended in 50 μL ice-cold PBS and 50 μL Matrigel (Catalog #354234, Corning, New York, NY, USA), and 100 μL was injected subcutaneously into the rear flanks. Once tumor volume reached at least 100 mm^3, mice were randomly assigned to one of seven groups (12 mice/group): Control (isotype), elraglusib, elraglusib+Isotype, anti-PD-1, anti-PD-L1, elraglusib+anti-PD-1, and elraglusib+anti-PD-L1. All treatments were delivered by IP injection using the following dosing schedule: Isotype (70 mg/kg, twice a week), elraglusib (70 mg/kg, twice a week), anti-PD-1 (10 mg/kg, twice a week), anti-PD-L1 (10 mg/kg, twice a week). Treatment dosing was determined based on previous studies of elraglusib and anti-PD-1/anti-PD-L1. Ugolkov et al., Anticancer Drugs, 29, 717-724 (2018); McClanahan et al., Blood, 126, 203-211 (2015); Bernardo et al., Oncoimmunology, 10, 1881268 (2021). The solvent for elraglusib was DMSO and the formulation buffer for elraglusib was made using 75% PEG400, 7% Tween 80, and 18% Ethanol. The treatment continued until mice developed signs of discomfort from excessive tumor growth. Mice were weighed once a week to monitor signs of drug toxicity. The length (L) and width (W) of the masses were measured three times per week with a digital caliper, and the tumor volume was calculated by applying the formula: 0.5LW2 Collection of whole blood and serum was performed by cardiac puncture and sent to Antech Diagnostics GLP (Morrisville, NC, USA) for blood cell count and chemistry tests, or in-house cytokine profiling. Tumors and organs were dissected and harvested for analysis by immunohistochemistry and flow cytometry.
The inventors evaluated the potential for elraglusib to increase the efficacy of immune checkpoint blockade and utilized a syngeneic murine colon carcinoma BALB/c murine model using a MSS cell line CT-26 (FIG. 4A). Mice were randomly assigned to one of seven groups: isotype (N=12), elraglusib (N=12), elraglusib+isotype (N=12), anti-PD-1 (N=12), anti-PD-L1 (N=12), elraglusib+anti-PD-1 (N=12), and elraglusib+ anti-PD-L1 (N=12). […] The inventors saw the most sustained response in the elraglusib and anti-PD-L1 combination therapy group.
TABLE 13 description. […] Whole blood from long-term mice sacrificed was submitted for serum chemistry analysis. Results are shown from the complete metabolic panel and complete blood count with differential. ALB: Albumin, ALP: Alkaline Phosphatase, ALT: Alanine aminotransferase, AMY: Amylase, ANIS: Anisocytosis, AST: Aspartate aminotransferase, ATYP: Atypical Lymphs, BAS: Absolute Basophils, BAS%: % Basophils, BUN: Urea Nitrogen, CA: Calcium, CHOL: Cholesterol, CL: Chloride, CPK: Creatine kinase, CPLT: Clumped Platelets, CREA: Creatinine, DBIL: Direct Bilirubin, EOS: Absolute Eosinophils, EOS% : % Eosinophils, GGT: Gamma-glutamyl Transferase, GLU: Glucose, HB: Hemoglobin, HCT: Hematocrit, HJB: Howell-Jolly Bodies, HYPO: Hypochromasia, HYPR: Hyperchromasia, K: Potassium, LDH: Lactate Dehydrogenase, LIP: Lipase, LPLT: Large Platelets, LUC: Absolute Large Unstained Cells, LUC%: % Large Unstained Cells, LYM: Absolute Lymphocytes, LYM%: % Lymphocytes, MAC: Macrocytosis, MCH: Mean Corpuscular Hemoglobin, MCHC: Mean Corpuscular Hemoglobin […], MCV: Mean Corpuscular Volume, MG: Magnesium, MIC: Microcytosis, MON: Absolute Monocytes, MON%: % Monocytes, NA: Sodium, NEU: Absolute Neutrophils, NEU%: % Neutrophils, PHOS: Inorganic Phosphorus, PLT: Platelet Count, POLK: Poikilocytosis, RBC: Red Blood Cell Count, TBIL: Total Bilirubin, TPRO: Total Protein, TRIG: Triglyceride, WBC: White Blood Cell Count.

NK-92 = assay: Western blot analysis; format: cell-based, human
Procedure: Western blot analysis. Cells were plated in a 6-well plate and incubated overnight before the spent media was replaced with drugged media. Drug treatment lasted for indicated durations. Protein was extracted using radioimmunoprecipitation (RIPA) assay buffer (Cat #R0278, Sigma-Aldrich, St. Louis, MO, USA) containing cOmplete™, Mini, EDTA-free Protease Inhibitor Cocktail (Cat #4693159001, Roche, Basel, Switzerland) from sub-confluent cells. Denaturing sample buffer was added, samples were boiled at 95° C. for ten minutes, and an equal amount of protein lysate was electrophoresed through NuPAGE™ 4 to 12%, bis-Tris, 1.5 mm, Mini Protein Gels (Invitrogen, Waltham, MA, USA) then transferred to PVDF membranes. The PVDF membrane was blocked with 5% non-fat milk (Sigma-Aldrich, St. Louis, MO, USA) in 1× TTBS. Primary antibodies were incubated with the transferred PVDF membrane in blocking buffer at 4° C. overnight. Secondary antibodies included Goat anti-Rabbit IgG (H+L) Secondary Antibody, HRP (Cat #31460, Invitrogen, Waltham, MA, USA), and Goat anti-Mouse IgG (H+L) Secondary Antibody, HRP (Cat #31430, Invitrogen, Waltham, MA, USA). The signal was detected using Pierce™ ECL Western Blotting Substrate (Cat #32106, Thermo Scientific, Waltham, MA, USA) and a Syngene Imaging System (RRID: SCR_015770).
Because of the differential impact of elraglusib on tumor and immune cells that the inventors observed via Western blot, the inventors compared the levels of another survival protein Mcl-1 in NK-92 natural killer cells.

[2] = Luminex 200 analysis of patient plasma (NCT03678883); format: in vivo, human; details: eight hours and twenty-four hours after treatment
[3] = immune cells, cell line not given

Cn1cc(C2=C(c3coc4ccc(F)cc34)C(=O)NC2=O)c2cc3c(cc21)OCO3 [elraglusib]
ALB (Albumin) ([1]; long-term mice sacrificed): 2.7 g/dL | ALP (Alkaline Phosphatase) ([1]; long-term mice sacrificed): 4 U/L | ALT (Alanine aminotransferase) ([1]; long-term mice sacrificed): 26 U/L | AMY (Amylase) ([1]; long-term mice sacrificed): 275 U/L | AST (Aspartate aminotransferase) ([1]; long-term mice sacrificed): 198 U/L | BUN (Urea Nitrogen) ([1]; long-term mice sacrificed): 27 mg/dL | CHOL (Cholesterol) ([1]; long-term mice sacrificed): 101 mg/dL | CL (Chloride) ([1]; long-term mice sacrificed): 111 mmol/L | CPK (Creatine kinase) ([1]; long-term mice sacrificed): 1968 U/L | CREA (Creatinine) ([1]; long-term mice sacrificed): 0.2 mg/dL | DBIL (Direct Bilirubin) ([1]; long-term mice sacrificed): 0 mg/dL | GGT (Gamma-glutamyl Transferase) ([1]; long-term mice sacrificed): 0 U/L | GLU (Glucose) ([1]; long-term mice sacrificed): 230 mg/dL | K (Potassium) ([1]; long-term mice sacrificed): >10.0 mmol/L | LDH (Lactate Dehydrogenase) ([1]; long-term mice sacrificed): 2230 U/L | LIP (Lipase) ([1]; long-term mice sacrificed): 59 U/L | MG (Magnesium) ([1]; long-term mice sacrificed): 1.2 mg/dL | NA (Sodium) ([1]; long-term mice sacrificed): 146 mmol/L | PHOS (Inorganic Phosphorus) ([1]; long-term mice sacrificed): 8.2 mg/dL | TBIL (Total Bilirubin) ([1]; long-term mice sacrificed): 0.5 mg/dL | TPRO (Total Protein) ([1]; long-term mice sacrificed): 4.5 g/dL | TRIG (Triglyceride) ([1]; long-term mice sacrificed): 136 mg/dL | renal function (BUN and creatinine) ([1]; mouse, in vivo): maintained normal renal function | NF-κB-inducing kinase (NIK) expression (NK-92; [3]): increases | Survivin expression (NK-92; [3]): increases | Mcl-1 protein expression (NK-92; through the 72-hour endpoint): did not observe a significant decrease | plasma cytokines, chemokines, growth factors vs baseline [2]: upregulated
